Data set [1] is described as follows: collision cross section (TIMS, N2 drift gas) of the primary ion; higher = larger gas-phase ion size.
A short description of data set [2]: reversed-phase LC retention time (C18, 15 min MeOH gradient); higher = more hydrophobic / later elution.
[3] abbreviates: ionization mode: ESI+, ion species: [M+H]+.
Where [4] appears, read: ionization mode: ESI-, ion species: [M-H]-.

Turning to `CCCC1CC(C(=O)NC(C(C)Cl)C2OC(SC)C(O)C(O)C2O)N(C)C1` (stereo not drawn) [Clindamycin], the collision cross section in data set [1] (setting [3]) was 203.51 Å²; in data set [1] (setting [4]) it was 200.27 Å². Moreover, the “reversed-phase LC retention time” value stood at 11.5 min in data set [2] (setting [3]) and 16.1 min in data set [2] (setting [4]).
For the compound `CCC(=O)O[C@]1(C(=O)CCl)[C@@H](C)C[C@H]2[C@@H]3CCC4=CC(=O)C=C[C@]4(C)[C@@]3(F)[C@@H](O)C[C@@]21C` [Clobetasol propionate], the figures for the collision cross section in data set [1] (setting [3]) and in data set [1] (setting [4]) were 207.98 Å² and 210.25 Å², respectively. Moreover, the “reversed-phase LC retention time” value in data set [2] (setting [3]) came out at 15.2 min; in data set [2] (setting [4]) it was 15.6 min.
For the compound `C[C@H]1C[C@H]2[C@@H]3CCC4=CC(=O)C=C[C@]4(C)[C@@]3(F)[C@@H](O)C[C@]2(C)[C@@]1(O)C(=O)CCl` [Clobetasol], in data set [1] (setting [4]), the collision cross section is listed as 194.82 Å². Besides, the “reversed-phase LC retention time” value in data set [2] (setting [4]) was 14.4 min.
Regarding `CC1(C)CON(Cc2ccccc2Cl)C1=O` [Clomazon], the collision cross section in data set [1] (setting [3]) is recorded as 146.86 Å². In addition, the “reversed-phase LC retention time” value in data set [2] (setting [3]) worked out at 13.5 min.
Turning to `Clc1cccc(Cl)c1NC1=NCCN1` [Clonidine], the collision cross section is 145.06 Å² in data set [1] (setting [3]) and 145.07 Å² in data set [1] (setting [4]). Also, the “reversed-phase LC retention time” value turned out to be 6.83 min in data set [2] (setting [3]) and 9.84 min in data set [2] (setting [4]).
The compound `COC(=O)C(c1ccccc1Cl)N1CCc2sccc2C1` (stereo not drawn) [Clopidogrel] returned a collision cross section in data set [1] (setting [3]) of 170.12 Å². Further, the “reversed-phase LC retention time” value in data set [2] (setting [3]) is 15.4 min.
In the case of `CN/C(=N\[N+](=O)[O-])NCc1cnc(Cl)s1` [Clothianidin], the collision cross section was 153.61 Å² in data set [1] (setting [3]) and 150.63 Å² in data set [1] (setting [4]). In addition, the “reversed-phase LC retention time” value stood at 8.59 min in data set [2] (setting [3]) and 8.62 min in data set [2] (setting [4]).
As for `CN1CCN(C2=Nc3cc(Cl)ccc3Nc3ccccc32)CC1` [Clozapine], the collision cross section in data set [1] (setting [3]) turned out to be 179.65 Å². The “reversed-phase LC retention time” value in data set [2] (setting [3]) was 11.6 min.
The corresponding values for `CCC[C@H]1CCCCN1` [Coniine] are 129.06 Å² and 6.79 min.
In the case of `C[C@]12CCC(=O)C=C1CC[C@@H]1[C@@H]2C(=O)C[C@@]2(C)[C@H]1CC[C@]2(O)C(=O)CO` [Cortisone], in data set [1] (setting [3]), the collision cross section was determined as 181.22 Å². For the same compound, the “reversed-phase LC retention time” value in data set [2] (setting [3]) came to 16.9 min.
The corresponding values for `CN1C(=O)CC[C@H]1c1cccnc1` [Cotinine] are 143.26 Å² and 3.34 min.
With `O=c1oc2cc(O)ccc2c2oc3cc(O)ccc3c12` [Coumestrol], the collision cross section in data set [1] (setting [3]) was found to be 156.86 Å²; in data set [1] (setting [4]), 156.09 Å². Moreover, the entries for the “reversed-phase LC retention time” value in data set [2] (setting [3]) and in data set [2] (setting [4]) were 12.5 min and 11.7 min, respectively.
The compound `C/C=C/C(=O)N(CC)c1ccccc1C` [Crotamiton] displayed a collision cross section in data set [1] (setting [3]) of 144.88 Å². In addition, the “reversed-phase LC retention time” value in data set [2] (setting [3]) turned out to be 14 min.
In turn, `O=S(=O)(O)NC1CCCCC1` [Cyclamate] registered a collision cross section in data set [1] (setting [4]) of 138.05 Å². In addition, the “reversed-phase LC retention time” value in data set [2] (setting [4]) amounted to 6.16 min.
Compound `O=P1(N(CCCl)CCCl)NCCCO1` (stereo not drawn) [Cyclophosphamide] gave a collision cross section in data set [1] (setting [3]) of 147.43 Å². Further, the “reversed-phase LC retention time” value in data set [2] (setting [3]) is 10.5 min.
Take `CC(C1CC1)C(O)(Cn1cncn1)c1ccc(Cl)cc1` (stereo not drawn) [Cyproconazole_1]: the collision cross section in data set [1] (setting [3]) was found to be 170.22 Å². Further, in data set [2] (setting [3]), the “reversed-phase LC retention time” value came out at 14.4 min.
In data set [1] (setting [3]), `CC(C1CC1)C(O)(Cn1cncn1)c1ccc(Cl)cc1` (stereo not drawn) [Cyproconazole_2] came in with a collision cross section of 170.04 Å². Moreover, the “reversed-phase LC retention time” value in data set [2] (setting [3]) turned out to be 14.6 min.
As for `CC(=O)[C@@]1(O)CC[C@H]2[C@@H]3C=C(Cl)C4=CC(=O)[C@@H]5C[C@@H]5[C@]4(C)[C@H]3CC[C@@]21C` [Cyproterone], the values for the collision cross section in data set [1] (setting [3]) and in data set [1] (setting [4]) were 190.49 Å² and 190.87 Å², respectively. Further, the “reversed-phase LC retention time” value in data set [2] (setting [3]) is 14.6 min; in data set [2] (setting [4]) it was 14.9 min.
Turning to `Nc1nc(N)nc(NC2CC2)n1` [Cyromazine], the collision cross section in data set [1] (setting [3]) turned out to be 134.76 Å². The “reversed-phase LC retention time” value in data set [2] (setting [3]) was 3.4 min.
Compound `CCCCCCCCn1sc(Cl)c(Cl)c1=O` [DCOIT] yielded a collision cross section in data set [1] (setting [3]) of 166.39 Å². Besides, the “reversed-phase LC retention time” value in data set [2] (setting [3]) worked out at 16.9 min.
As to `CCN(CC)C(=O)c1cccc(C(=O)O)c1` [DEET carboxylic acid], the collision cross section is recorded as 151.03 Å² in data set [1] (setting [3]) and 157.09 Å² in data set [1] (setting [4]). Also, the figures for the “reversed-phase LC retention time” value in data set [2] (setting [3]) and in data set [2] (setting [4]) were 10.8 min and 8.24 min, respectively.
Consider `CCN(CC)C(=O)c1cccc(C)c1` [DEET], for which, in data set [1] (setting [3]), the collision cross section amounted to 142.86 Å². For the same compound, the “reversed-phase LC retention time” value in data set [2] (setting [3]) was 13 min.
`CC(C)CCCCCCOC(=O)C1CCCCC1C(=O)OCCCCCCC(C)C` (stereo not drawn) [DINCH]: in data set [1] (setting [3]), the collision cross section is on record as 228.01 Å². Besides, in data set [2] (setting [3]), the “reversed-phase LC retention time” value was 20.1 min.
In the case of `O=c1c(-c2ccc(O)cc2)coc2cc(O)ccc12` [Daidzein], the collision cross section in data set [1] (setting [3]) is given as 155.18 Å²; in data set [1] (setting [4]) it was 157.58 Å². For the same compound, the “reversed-phase LC retention time” value is 11.1 min in data set [2] (setting [3]) and 9.78 min in data set [2] (setting [4]).
On to `CCCCCCCCCCOS(=O)(=O)O` [Decylsulfate], for which the collision cross section in data set [1] (setting [4]) is listed as 159.61 Å². For the same compound, the “reversed-phase LC retention time” value in data set [2] (setting [4]) was determined as 14.9 min.
The corresponding values for `CC(C)c1ccc2c(c1)CC[C@H]1[C@](C)(C(=O)O)CCC[C@]21C` [Dehydroabietic acid] are 184.43 Å² and 16.5 min.

These data come from the supplement of paper PMC12613149.
